Assay [1] has as its target T1, PSMA-expressing C4-2 cells (Homo sapiens, UniProt Q04609).
T1 construct: PSMA-expressing C4-2 cells (ATCC, Cat. No. CRL-3314) were cultured in RPMI-1640; host or cells: C4-2 cells
Description: FACS binding assay (competition with 50 nM PSM-0183). Conditions: pIC50 category of FACS binding, C4-2 cells; read-out: pIC50 [C4-2] CAT (converted). In short, it runs like this: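 C4-2 cells were incubated 1 h at 4 °C with 50 nM AF488-labelled peptide PSM-0183 plus increasing test compound concentrations, then washed twice in ice-cold buffer. Median fluorescence in the AF488 channel was read by flow cytometry. IC50/pIC50 was derived by 4PL fitting of MFI versus concentration.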
(Flow cytometry measures light scatter and fluorescence of single cells or particles in a stream.)

Assay [2] addresses T2, Fc-fusion protein of human PSMA (hPSMA-Fc) (Homo sapiens, UniProt Q04609).
T2 construct: purchased Acro Biosystems PSA-H5264
Description: Surface plasmon resonance assay (Biacore T200, single cycle kinetic). It is filed as binding. As to conditions: pKD category for PSMA SPR activity assay, hPSMA-Fc, 25° C.; read-out: pKD CAT (converted). In short, it runs like this: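 hPSMA-Fc was captured (~1000 RU) on an Fc-binding-peptide CM5 chip, and compounds were run in single cycle kinetic mode at 25° C in HBST with 0.1% DMSO. Double-blank-corrected sensorgrams were fitted to a 1:1 Langmuir model to give KD, reported as pKD.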
On the technique in general: SPR reads the build-up and loss of mass on a sensor chip optically.

Numbered stars: 1 amine (or outer) side, 2 acyl side, 3 side chain; on linkers, the order of the positions; unused ones are H or OH. Bridge positions count the residues as written; N and C are the ends. Square brackets hold non-standard residues; d marks the D form. Side chains are listed from the residue outwards. Peptide text beside a SMILES is read from it. * marks the point of attachment. X3 = O=C(O)CN1CCN(CC(=O)O)CCN(CC(=O)NCCCOCCOCCOCCCN*)CCN(CC(=O)O)CC1; DOTA = O=C(O)CN1CCN(CC(=O)O)CCN(CC(=O)*)CCN(CC(=O)O)CC1; Phe(3-Cl) = N[C@@H](Cc1cccc(Cl)c1)C(=O)O; Phe(4-Cl) = N[C@@H](Cc1ccc(Cl)cc1)C(=O)O; Phe(4-NH2) = Nc1ccc(C[C@H](N)C(=O)O)cc1; Pro(4R-NH2) = N[C@H]1CN[C@H](C(=O)O)C1; X1 = O=C(CC1CCN([*:1])CC1)[*:2]; Cit = NC(=O)NCCC[C@H](N)C(=O)O; Suc = O=C(CCC(=O)[*:2])[*:1]; Tle = CC(C)(C)[C@H](N)C(=O)O; Pyridin(2-yl) = c1ccc(*)nc1; 4Amb = NCc1ccc(C(=O)O)cc1; Orn = NCCC[C@H](N)C(=O)O; Aib = CC(C)(N)C(=O)O; CO = O=C([*:1])[*:2]; βAla = NCCC(=O)O; NHBu = CCCCN* Where only a bound is given, the exact number is not on record here.

T1 sequence (Q04609 whole entry): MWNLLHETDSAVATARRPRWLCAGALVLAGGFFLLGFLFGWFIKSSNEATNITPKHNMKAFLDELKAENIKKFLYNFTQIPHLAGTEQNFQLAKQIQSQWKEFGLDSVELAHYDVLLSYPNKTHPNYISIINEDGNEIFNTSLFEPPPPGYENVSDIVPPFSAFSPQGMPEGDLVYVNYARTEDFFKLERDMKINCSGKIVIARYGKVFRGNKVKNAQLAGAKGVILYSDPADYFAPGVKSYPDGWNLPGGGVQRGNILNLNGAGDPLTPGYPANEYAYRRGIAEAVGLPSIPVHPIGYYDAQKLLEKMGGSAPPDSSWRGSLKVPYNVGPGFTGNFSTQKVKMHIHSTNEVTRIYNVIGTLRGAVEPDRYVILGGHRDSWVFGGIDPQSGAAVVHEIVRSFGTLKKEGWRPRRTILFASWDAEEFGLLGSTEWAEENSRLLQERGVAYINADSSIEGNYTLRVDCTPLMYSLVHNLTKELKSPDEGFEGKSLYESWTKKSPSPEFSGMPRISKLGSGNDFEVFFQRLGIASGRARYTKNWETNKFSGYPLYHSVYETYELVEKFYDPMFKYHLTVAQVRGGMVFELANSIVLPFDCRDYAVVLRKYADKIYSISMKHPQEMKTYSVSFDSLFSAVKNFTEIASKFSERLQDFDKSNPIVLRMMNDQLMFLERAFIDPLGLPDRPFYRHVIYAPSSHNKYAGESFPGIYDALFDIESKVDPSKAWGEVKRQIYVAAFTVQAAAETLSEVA
T2 sequence (Q04609 44-750 limits assumed): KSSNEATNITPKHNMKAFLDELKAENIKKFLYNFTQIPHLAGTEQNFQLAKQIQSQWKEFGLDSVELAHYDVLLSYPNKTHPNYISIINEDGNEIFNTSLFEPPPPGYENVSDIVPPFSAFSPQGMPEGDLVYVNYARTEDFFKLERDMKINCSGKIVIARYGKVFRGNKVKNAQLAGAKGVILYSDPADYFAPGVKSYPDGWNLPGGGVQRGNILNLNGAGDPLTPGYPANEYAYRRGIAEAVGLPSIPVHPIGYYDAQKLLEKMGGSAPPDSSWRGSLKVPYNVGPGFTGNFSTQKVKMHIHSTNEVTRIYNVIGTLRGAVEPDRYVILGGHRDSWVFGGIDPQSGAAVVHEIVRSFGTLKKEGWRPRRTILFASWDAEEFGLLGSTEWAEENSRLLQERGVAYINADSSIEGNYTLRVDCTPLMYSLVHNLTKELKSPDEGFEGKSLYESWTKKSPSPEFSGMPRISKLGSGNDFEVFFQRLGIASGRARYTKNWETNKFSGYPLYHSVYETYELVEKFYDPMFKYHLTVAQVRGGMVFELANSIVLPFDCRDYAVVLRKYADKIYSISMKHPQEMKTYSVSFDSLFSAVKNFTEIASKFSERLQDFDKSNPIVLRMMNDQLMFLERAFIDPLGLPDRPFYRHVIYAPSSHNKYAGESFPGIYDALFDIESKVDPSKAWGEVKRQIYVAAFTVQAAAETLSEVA

Turning to `CC(=O)N[C@H](C(=O)NC(C)(C)C(=O)N[C@@H](Cc1ccc(Cl)cc1)C(=O)N[C@H]1CSSC[C@@H](C(=O)N[C@H](CC(C)C)C(=O)N[C@H](C(N)=O)[C@@H](C)O)NC(=O)[C@H](CC(N)=O)NC(=O)C(C)(C)NC(=O)[C@H](CCCNC(N)=O)NC(=O)[C@H](CCCCN)NC1=O)[C@@H](C)O` [PSM-0421, Ac-Thr-Aib-Pcf-[Cys-Lys-Cit-Aib-Asn-Cys]-leu-Thr-NH2] (Ac-T[Aib][Phe(4-Cl)]CK[Cit][Aib]NC[dL]T-NH2; disulfide 4-9), in assay [1], the IC50 was 200 to 1260 nM. The Kd in assay [2] is 126 to 501 nM.

Regarding `CC(=O)N[C@H](C(=O)NC(C)(C)C(=O)N[C@@H](Cc1ccccc1)C(=O)N[C@H]1CSSC[C@@H](C(=O)N[C@H](C(=O)N[C@H](C(=O)N[C@@H](CC(=O)O)C(N)=O)[C@@H](C)O)C(C)(C)C)NC(=O)[C@H](CC(N)=O)NC(=O)[C@H](C)NC(=O)[C@H](CCCNC(=N)N)NC(=O)[C@@H]2C[C@@H](N)CN2C1=O)[C@@H](C)O` [PSM-0422, Ac-Thr-Aib-Phe-[Cys-Tap-Arg-Ala-Asn-Cys]-Tle-Thr-Asp-NH2] (Ac-T[Aib]FC[Pro(4R-NH2)]RANC[Tle]TD-NH2; disulfide 4-9), the IC50 in assay [1] was under 200 nM. For the same molecule, the Kd in assay [2] is 126 to 501 nM.

With `CC(=O)N[C@H](C(=O)NC(C)(C)C(=O)N[C@@H](Cc1ccccc1)C(=O)N[C@H]1CSSC[C@@H](C(=O)N[C@H](C(=O)N[C@H](C(N)=O)[C@@H](C)O)C(C)(C)C)NC(=O)[C@H](CC(N)=O)NC(=O)[C@H](CCCCNC(=O)CCC(=O)NCCCOCCOCCOCCCNC(=O)CN2CCN(CC(=O)O)CCN(CC(=O)O)CCN(CC(=O)O)CC2)NC(=O)[C@H](CCC(N)=O)NC(=O)[C@H](CCCCN)NC1=O)[C@@H](C)O` [PSM-0423, Ac-Thr-Aib-Phe-[Cys-Lys-Gln-Lys(DOTA-Ttds)-Asn-Cys]-Tle-Thr-NH2] (Ac-T[Aib]FCKQK([Suc-X3])NC[Tle]T-NH2; disulfide 4-9), in assay [1], the IC50 was 200 to 1260 nM. Further, the Kd in assay [2] is 12.6 to 126 nM.

Regarding `CC(=O)N[C@H](C(=O)NC(C)(C)C(=O)N[C@@H](Cc1ccccc1)C(=O)N[C@H]1CSSC[C@@H](C(=O)N[C@H](C(=O)NCCC(N)=O)C(C)(C)C)NC(=O)[C@H](CC(N)=O)NC(=O)C(C)(C)NC(=O)[C@H](CCCNC(=N)N)NC(=O)[C@H](CCCCN)NC1=O)[C@@H](C)O` [PSM-0426, Ac-Thr-Aib-Phe-[Cys-Lys-Arg-Aib-Asn-Cys]-Tle-Bal-NH2] (Ac-T[Aib]FCKR[Aib]NC[Tle][βAla]-NH2; disulfide 4-9), the IC50 in assay [1] was under 200 nM. The Kd in assay [2] was under 12.6 nM.

In the case of `CCCCNC(=O)N[C@H](C(=O)NC(C)(C)C(=O)N[C@@H](Cc1ccc(Cl)cc1)C(=O)N[C@H]1CSSC[C@@H](C(=O)N[C@H](C(=O)N[C@H](C(=O)N2CCC(CC(=O)N[C@H](CCCCNC(=O)CN3CCN(CC(=O)O)CCN(CC(=O)O)CCN(CC(=O)O)CC3)C(N)=O)CC2)[C@@H](C)O)C(C)(C)C)NC(=O)[C@H](CC(N)=O)NC(=O)C(C)(C)NC(=O)[C@H](CCCNc2ccccn2)NC(=O)[C@H](CCCCN)NC1=O)[C@@H](C)O` [PSM-0427, nBuCAyl-Thr-Aib-Pcf-[Cys-Lys-Opy-Aib-Asn-Cys]-Tle-Thr-Cmp-lys(DOTA)-NH2] ({NHBu-CO}-T[Aib][Phe(4-Cl)]CK[Orn](Pyridin(2-yl))[Aib]NC[Tle]T[X1][dK](DOTA)-NH2; disulfide 4-9), in assay [1], the IC50 is under 200 nM. Moreover, the Kd in assay [2] is 12.6 to 126 nM.

For `C[C@@H](O)[C@H](NC(=O)[C@@H](NC(=O)[C@@H]1CSSC[C@H](NC(=O)[C@H](Cc2cccc(Cl)c2)NC(=O)C(C)(C)NC(=O)[C@@H](NC(=O)CC2CCN(C(=O)CN3CCN(CC(=O)O)CCN(CC(=O)O)CCN(CC(=O)O)CC3)CC2)[C@@H](C)O)C(=O)N[C@@H](CCCCN)C(=O)N[C@@H](CCCNC(N)=O)C(=O)NC(C)(C)C(=O)N[C@@H](CC(N)=O)C(=O)N1)C(C)(C)C)C(N)=O` [PSM-0431, DOTA-Cmp-Thr-Aib-Mcf-[Cys-Lys-Cit-Aib-Asn-Cys]-Tle-Thr-NH2] ({DOTA}-[X1]T[Aib][Phe(3-Cl)]CK[Cit][Aib]NC[Tle]T-NH2; disulfide 5-10), in assay [1], the IC50 was 200 to 1260 nM. Besides, in assay [2], the Kd is under 12.6 nM.

Turning to `CC(C)(NC(=O)c1ccc(CNC(=O)CN2CCN(CC(=O)O)CCN(CC(=O)O)CCN(CC(=O)O)CC2)cc1)C(=O)N[C@@H](Cc1ccc(Cl)cc1)C(=O)N[C@H]1CSSC[C@@H](C(=O)N[C@H](C(=O)NCCC(N)=O)C(C)(C)C)NC(=O)[C@H](CC(N)=O)NC(=O)C(C)(C)NC(=O)[C@H](CCCNC(=N)N)NC(=O)[C@H](CCCCN)NC1=O` [PSM-0432, DOTA-Pamb-Aib-Pcf-[Cys-Lys-Arg-Aib-Asn-Cys]-Tle-Bal-NH2] ({DOTA-4Amb}-[Aib][Phe(4-Cl)]CKR[Aib]NC[Tle][βAla]-NH2; disulfide 3-8), the IC50 in assay [1] was under 200 nM. In addition, the Kd in assay [2] is under 12.6 nM.

Regarding `CCCCNC(=O)N[C@H](C(=O)NC(C)(C)C(=O)N[C@@H](Cc1ccccc1)C(=O)N[C@H]1CSSC[C@@H](C(=O)N[C@H](C(=O)N[C@H](C(=O)N2CCC(CC(=O)N[C@H](CCCCNC(=O)CN3CCN(CC(=O)O)CCN(CC(=O)O)CCN(CC(=O)O)CC3)C(N)=O)CC2)[C@@H](C)O)C(C)(C)C)NC(=O)[C@H](CC(N)=O)NC(=O)C(C)(C)NC(=O)[C@H](CCCNC(N)=O)NC(=O)[C@H](CCCCN)NC1=O)[C@@H](C)O` [PSM-0434, nBuCAyl-Thr-Aib-Phe-[Cys-Lys-Cit-Aib-Asn-Cys]-Tle-Thr-Cmp-lys(DOTA)-NH2] ({NHBu-CO}-T[Aib]FCK[Cit][Aib]NC[Tle]T[X1][dK](DOTA)-NH2; disulfide 4-9), in assay [1], the IC50 is 200 to 1260 nM. Moreover, in assay [2], the Kd is 12.6 to 126 nM.

For `CC(=O)N[C@H](C(=O)NC(C)(C)C(=O)N[C@@H](Cc1ccccc1)C(=O)N[C@H]1CSSC[C@@H](C(=O)N[C@H](C(=O)N[C@H](C(=O)N[C@@H](CC(=O)O)C(N)=O)[C@@H](C)O)C(C)(C)C)NC(=O)[C@H](CC(N)=O)NC(=O)[C@H](C)NC(=O)[C@H](CCCNC(=N)N)NC(=O)[C@H](CCC(N)=O)NC1=O)[C@@H](C)O` [PSM-0435, Ac-Thr-Aib-Phe-[Cys-Gln-Arg-Ala-Asn-Cys]-Tle-Thr-Asp-NH2] (Ac-T[Aib]FCQRANC[Tle]TD-NH2; disulfide 4-9), the IC50 in assay [1] is under 200 nM. Further, the Kd in assay [2] is 12.6 to 126 nM.

On to `C[C@@H](O)[C@H](NC(=O)[C@@H](NC(=O)[C@@H]1CSSC[C@H](NC(=O)[C@H](Cc2ccccc2)NC(=O)C(C)(C)NC(=O)CCNC(=O)CN2CCN(CC(=O)O)CCN(CC(=O)O)CCN(CC(=O)O)CC2)C(=O)N[C@@H](CCCCN)C(=O)N[C@@H](CCCNC(=N)N)C(=O)NC(C)(C)C(=O)N[C@@H](CC(N)=O)C(=O)N1)C(C)(C)C)C(N)=O` [PSM-0437, DOTA-Bal-Aib-Phe-[Cys-Lys-Arg-Aib-Asn-Cys]-Tle-Thr-NH2] ({DOTA-βAla}-[Aib]FCKR[Aib]NC[Tle]T-NH2; disulfide 3-8), for which the IC50 in assay [1] is under 200 nM. Besides, the Kd in assay [2] was 12.6 to 126 nM.

For the molecule `CC(=O)N[C@H](C(=O)NC(C)(C)C(=O)N[C@@H](Cc1ccccc1)C(=O)N[C@H]1CSSC[C@@H](C(=O)N[C@H](C(=O)N[C@H](C(=O)N[C@@H](CC(=O)O)C(N)=O)[C@@H](C)O)C(C)(C)C)NC(=O)[C@H](CC(N)=O)NC(=O)[C@H](C)NC(=O)[C@H](CCCNC(=N)N)NC(=O)[C@H](Cc2ccc(N)cc2)NC1=O)[C@@H](C)O` [PSM-0439, Ac-Thr-Aib-Phe-[Cys-Aph-Arg-Ala-Asn-Cys]-Tle-Thr-Asp-NH2] (Ac-T[Aib]FC[Phe(4-NH2)]RANC[Tle]TD-NH2; disulfide 4-9), the IC50 in assay [1] is under 200 nM. The Kd in assay [2] was 126 to 501 nM.

The values above are taken from patent publication US20260083865A1, “PROSTATE SPECIFIC MEMBRANE ANTIGEN (PSMA) LIGANDS AND USE THEREOF” (priority 2022, published 2026).
